Measured values reported in US12692267B2 (Madera Therapeutics, LLC, priority 2019, dated 2026).
Each block holds one compound with its values, some of them ahead of it.

What was measured:
[1] = test system: MDA-MB-231 (MDA 231, human breast adenocarcinoma); test: Cancer cell viability, CCK-8, MDA-MB-231; format: cell-based; settings: Homo sapiens, MDA-MB-231; MDA 231, 48 hours, CCK-8; read-out: EC50 (uM, MDA 231)
Procedure: (§1) Cancer cell lines. […] The plate is incubated for 48 hours.
(§2) CCK-8 solution is added directly to the cells.

[2] = test system: HCT116 (human colon cancer); test: Cancer cell viability, CCK-8, HCT116; format: cell-based; settings: Homo sapiens, HCT-116, 48 h, HCT116, 48 hours, CCK-8; read-out: EC50 (uM, HCT116)
Procedure: as §1, §2

ALAS1 (SEQ ID NO. 2) = test: ALAS1 Western blotting time courses (FIG. 15-17); settings: Ex. 85 at 50 nM; 30 minute, sustained over 24 hrs
hClpP = target: T1, hClpP (Homo sapiens, UniProt Q16740); test: hClpP binding to immobilized compound Sepharose beads, Western blot
T1 construct: endogenous in cells; host or cells: HeLa cell lysate

[3] = target: recombinant human caseinolytic peptidase hClpP (Homo sapiens, UniProt Q16740); test: hClpP peptide hydrolysis assay (Ac-WLA-AMC); settings: Protocol 2, purified hClpP, Ac-WLA-AMC
Procedure: Briefly, the activity of recombinant hClpP proteolytic subunit (1 μg/mL) was measured in the assay buffer composed of 50 mM Tris, 10 mM MgCl2, 100 mM KCl, 1 mM DTT, 4 mM ATP, 0.02% Triton X-100 and 5% Glycerol, pH 8.0 (HCl) using 10 µM of fluorogenic Ac-WLA-AMC substrate as described in references above. […] Using the first protocol (Protocol 1), the reaction was initiated by immediately mixing enzyme and substrate in the presence of indicated doses of compounds. Applying a second protocol (Protocol 2), the enzyme and compounds were mixed and incubated in assay buffer for 60 min before initiating the reaction by adding Ac-WLA-ACM substrate.
Enzymatic activity of hClpP was measured in assay buffer (as described in Experimental Procedure/Materials and Methods) and the level of fluorescence of liberated coumarin monitored continuously.

ClpX and TUFM = ClpX and TUFM Western blots in SUM159 cells (FIG. 5); settings: concentration response and time course
SUM159, ClpP CRISPR KO = test: Growth of SUM159 versus SUM159 ClpP CRISPR KO cells (FIG. 6); settings: SUM159 ClpP CRISPR KO compared to SUM159
[4] = test system: MDA-MB-231 triple negative breast cancer cells; test: Immunoblot of mitochondrial proteins, MDA-MB-231 (FIG. 12); format: cell-based; settings: MDA-MB-231, 100 nM, 3-48 hrs
Procedure: (§3) Immunoblot of SUM159 or MDA-MB-231 cells following 0.1% DMSO (48 hrs) or 100 nM Ex. 65 for indicated timepoints (3-48 hrs) for indicated proteins.

[5] = test system: SUM159 triple negative breast cancer cells; test: Immunoblot of mitochondrial proteins, SUM159 (FIG. 12); format: cell-based; settings: SUM159, 100 nM, 3-48 hrs
Procedure: as §3

[6] = test system: AN3CA (human uterine cancer); test: Cell viability CCK8, 72 hours, AN3CA; format: cell-based; settings: AN3-CA, 72 hours of drug incubation
Procedure: (§4) For cancer cell lines, AN3CA (human uterine/endometrial cancer, Van Nyen, T. et al Int. J. Mol. Sci. 2018, 19, 2348 and referenced cited therein) cell line and Capan-2 (human pancreatic adenocarcinoma) cell line additional details for testing are as follows. Using 96 well cell culture plate (Corning Costar, Cat #3599), after addition of the test compound (Example 65, or other) the plate is incubated at 37° C., 5% CO2 for 72 hours. Cell viability was determined using CCK8 assay by adding […] of CCK8 into the assay well, incubate the plate for 2 hours and record […] using a SpectraMax i3X reader. Other 72 hour incubation studies can also using these details in addition to other experimental details described herein.
(§5) Example 65 was examined in AN3CA (human uterine cancer) and Capan-2 (human pancreatic adenocarcinoma) cancer cell lines.

[7] = test system: Capan-2 (human pancreatic adenocarcinoma); test: Cell viability CCK8, 72 hours, Capan-2; format: cell-based; settings: 72 hours of drug incubation
Procedure: as §4, §5

Sequence of recombinant human caseinolytic peptidase hClpP (Q16740 57-277): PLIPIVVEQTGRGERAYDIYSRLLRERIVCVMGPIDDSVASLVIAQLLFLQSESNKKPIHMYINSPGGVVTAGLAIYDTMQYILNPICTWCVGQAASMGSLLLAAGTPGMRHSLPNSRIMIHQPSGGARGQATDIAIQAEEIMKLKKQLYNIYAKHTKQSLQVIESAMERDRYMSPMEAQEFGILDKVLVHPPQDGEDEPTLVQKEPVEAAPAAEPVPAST
T1 sequence (Q16740 57-277): as above

EC50 [1]: 0.003 µM | EC50 [2]: 0.008 µM
SMILES: N#Cc1cccc(CN2CCc3cnn(Cc4ccc(Cl)cc4)c(=O)c3C2)c1 [Example 85, 3-((3-(4-chlorobenzyl)-4-oxo-3,5,7,8-tetrahydropyrido[3,4-d]pyridazin-6 (4H)-yl)methyl)benzonitrile]
ALAS1 protein level (FIG. 16) (ALAS1 (SEQ ID NO. 2)): rapidly degraded

hClpP binding to compound coupled to Sepharose beads (hClpP): directly binds | EC50 [2]: 0.057 µM
SMILES: N#Cc1cccc(CN2CCc3c(c(=O)n(Cc4ccc(C(F)(F)F)cc4)c(=O)n3CCCN)C2)c1 [Ex. 57, 3-((1-(3-aminopropyl)-2,4-dioxo-3-(4-(trifluoromethyl)benzyl)-1,2,3,4,7,8-hexahydropyrido[4,3-d]pyrimidin-6 (5H)-yl)methyl)benzonitrile]
Dose-dependency of hClpP activation [3]: dose-dependent increases in hClpP activity

SMILES: Cn1c2c(c(=O)n(Cc3ccc(Cl)cc3)c1=O)CN(Cc1cccc(C#N)c1)CC2 [TR57]
ClpX and TUFM protein level (ClpX and TUFM): reduction of the protein ClpX and TUFM | Effect on growth of ClpP CRISPR knockout cells (SUM159, ClpP CRISPR KO): resistant

IC50 [6]: 1 nM | EC50 [2]: 0.021 µM | IC50 [7]: < 50 nM
SMILES: N#Cc1cccc(CN2CCc3ncn(Cc4ccc(Cl)cc4)c(=O)c3C2)c1 [Example 65]
Mitochondrial protein degradation [4]: induces degradation of mitochondrial proteins in a time dependent manner | Mitochondrial protein degradation [5]: induces degradation of mitochondrial proteins in a time dependent manner | Dose-dependency of hClpP activation [3]: Dose-dependent increases in hClpP activity
